Experimental data reported in patent publication US11965100B2, “Aggregation-induced emission luminogens useful for cancer cell discrimination and monitoring” (The Hong Kong University of Science and Technology, priority 2020, dated 2024).

Assays:
HeLa cells = assay: Mitochondrion-nucleolus migration on CCCP treatment, HeLa cells; assay type: cell-based; conditions: pre-stained 2 μM 30 min, 20 μM CCCP 5 min
Procedure: (§1) FIG. 16 Live HeLa cells were pre-stained with 2 μM IVP-02 for 30 min, and treated with 20 μM CCCP for 5 min. Then CCCP was removed away and fresh culture medium was added for another 5 min. λex=488 nm, λem=500-650 nm. Scale bar=20 μm.
FIG. 19 Live HeLa cells were pre-stained with 2 μM IVP-04, 22, 42, 06, 62 for 30 min, and treated with 20 μM CCCP for 5 min. Then CCCP was removed away and fresh culture medium was added for another 5 min, respectively. λex=488 nm, λem=500-650 nm. Scale bar=20 μm.
(§2) Monitoring cell viability is a highly valuable task for the fundamental researches in biology, pathology, and medicine. Then we investigated whether IVP-02 could monitor cell viability. Δψm is a very important indicator to characterize cell viability. With the loss of cell viability, Δψm would decrease, while with the recovery of cell viability, Δψm would also recover to the normal level. […] Carbonyl cyanide m-chlorophenyl hydrazone (CCCP) is a type of protonophore and can cause rapid acidification of mitochondria by collapsing Δψm. Cancer cells A549 were pre-stained with IVP-02 for 30 min. In FIG. 15A, in the beginning, IVP-02 stained mitochondria clearly. […] Hydrogen peroxide (H2O2) can inhibit the oxidation respiratory chain that would cause the loss of cell viability. Then live A549 and HeLa cells were pre-stained with IVP-02, and treated with 10 mM H2O2.
(§3) In addition to IVP-02, we further investigated whether other IVP molecules could monitor the viability of cancer cells through mitochondrion-nucleolus migration was investigated. A549 cells were pre-stained with IVP-04, 22, 42, 06, and 62, respectively, and then CCCP was added.

[1] = tested on: mitochondria in HeLa and A549 cells; assay: Co-stain with mitochondrial probe MitoTracker Deep Red FM (MTDR); assay type: cell-based; conditions: A549 and HeLa, 2 μM dye, co-stain 0.2 μM MTDR
Procedure: FIG. 6 CLSM images of live HeLa and A549 cells stained with 2 μM IVP-02 and 0.2 μM MTDR, respectively. IVP-02: λex=488 nm, λem=500-650 nm; MTDR: λex=640 nm, λem=650-700 nm. Scale bar=20 μm.
In the above pictures, filamentous structures in cytoplasm of cancer cells were observed, which were typical morphology of mitochondria. Then co-stain experiments with commercial mitochondrial probe MitoTracker™ Deep Red FM (MTDR) were carried out (FIG. 6).
It was speculated that the membrane permeability of the probe was a key factor for its selectivity to cancer cells, since the plasma membrane of cancer cells was reported to be more permeable than normal cells. Consequently, IVP-02 was modified by lengthening the alkyl chain at the pyridine salt side and indole side, respectively, to tune the membrane permeability. The synthetic route to these new IVP molecules is depicted in Scheme 1. Their chemical structures were fully characterized by ^1H NMR, ^13C NMR, and ^19F NMR. Then cancer cells A549 were stained with the five new molecules, respectively. […] The co-stain experiments with MTDR also confirmed their location in mitochondria in A549 cells in FIG. 7C. In addition to A549 cells, the same experiments were also carried in HeLa cells (FIGS. 8 and 9).

A549 cells = assay: Mitochondrion-nucleolus migration on CCCP treatment, A549 cells; assay type: cell-based, human; conditions: for migration back to mitochondria after removal of CCCP: A549, CCCP removed, fresh medium 5 min; for migration from mitochondria to nucleolus after addition of CCCP: A549, pre-stained 2 μM 30 min, 20 μM CCCP 5 min
Procedure: as §1, with “15” for “16”, “Live A549 cells (A) and live A549 co-cultured with COS 7 cells, live” for “Live”, “HeLa co-cultured with COS7” for “HeLa”, “cells (B)” for “cells”
FIG. 18 Live A549 cells were pre-stained with 2 μM IVP-04, 22, 42, 06, 62 for 30 min, and treated with 20 μM CCCP for 5 min. Then CCCP was removed away and fresh culture medium was added for another 5 min, respectively. λex=488 nm, λem=500-650 nm. Scale bar=20 μm.
as §2, §3

[2] = tested on: cancer cells (A549 and HeLa) co-cultured with normal cells (COS7 and HLF); assay: CLSM imaging of cancer cells co-cultured with normal cells; assay type: cell-based; conditions: A549 co-cultured with COS7, 2 μM, 30 min
Procedure: (§4) FIG. 5 CLSM images of live cancer cells (A549 and HeLa) co-cultured with normal cells (COS7 and HLF) (A), and the images of A549 and HLF cells seeded on different cover glasses (Scale bar=20 μm) (B) stained with 2 μM IVP-02 for 30 min (Scale bar=50 μm), respectively. λex=488 nm, λem=500-650 nm.
(§5) FIG. 10 CLSM images of live cancer cells (A549) co-cultured with normal cells (COS7) (A), and the images of A549 and HLF cells seeded on different cover glasses Scale bar=20 μm (B) stained with 2 μM IVP-02, 04, 06, 22, 42, and 62 for 30 min Scale bar=50 μm, respectively. (The first column in B is the same as FIG. 3B) λex=488 nm, λem=500-650 nm.
FIG. 11 CLSM images of live cancer cells (HeLa) co-cultured with normal cells (COS7), stained with 2 μM IVP-02, 04, 06, 22, 42, and 62 for 30 min, respectively. λex=488 nm, λem=500-650 nm. Scale bar=20 μm.
FIG. 12 CLSM images of live cancer cells (A549) co-cultured with normal cells (HLF), stained with 2 μM IVP-02, 04, 06, 22, 42, and 62 for 30 min, respectively. λex=488 nm, λem=500-650 nm. Scale bar=20 μm.
(§6) The bioimaging properties of IVP-02 in live cells were investigated by confocal laser scanning microscopy (CLSM). Cancer cells (A549 and HeLa) and normal cells (COS7 and HLF) were stained with IVP-02, respectively. […] So IVP-02 holds the high potential to differentiate cancer and normal cells. To verify this speculation, cancer and normal cells were co-cultured and stained with IVP-02. […] To precisely confirm the selectivity of IVP-02 to cancer cells, cancer cells A549 and normal cells HLF (A549 and HLF are both human lung cells) were seeded on different cover glasses, respectively. Then the two cover glasses were put in the same dish and stained with IVP-02 at the same time.
(§7) Cancer cells A549 co-cultured with normal cells COS7 were stained with these molecules, respectively. […] Then HeLa cells co-cultured with COS7 cells (FIG. 11), and A549 cells co-cultured with HLF cells (FIG. 12) were also stained with these molecules, the results were similar with that in A549 cells co-cultured with COS7 cells. In addition to co-culturing, A549 cells and HLF cells were also seeded on different cover glasses and stained with these molecules. […] Based on the imaging results above, it can be concluded that the selectivity of these IVP molecules to cancer cells is also based on the length of alkyl chain at pyridinium salt side. Lengthening the alkyl chain at the pyridinium salt side will eliminate the selectivity to cancer cells.

RNA = RNA fluorescence titration, Scatchard equation; assay type: binding; conditions: comparison in words
Description: FIG. 20 (A) Fluorescence titration (left) of IVP-02 with RNA and the fitted curve (right) according to Scatchard equation. (B) The binding mode of IVP-02 to RNA. (C) Binding constant (k) and binding energy (E) of IVP molecules to RNA.
FIG. 21 Fluorescence titration (left) of IVP-04, 22, 42, 06, and 62 with RNA and the fitted curve (middle) according to Scatchard equation, and the binding mode (right) of them to RNA.
Why IVP-06 and 62 cannot stain the nucleolus in cancer cells to a significant extent? On one hand, when IVP molecules located in mitochondria, in addition to the electrostatic interaction between the cation and inner membrane negative charge of mitochondria, the hydrophobic interaction between alkyl chain and phospholipids also existed. When Δψm decreased, although the electrostatic interaction weakened, the hydrophobic interaction still remained. IVP-06 and 62 have longer alkyl chain than the other four IVP molecules, so the hydrophobic interaction between IVP-06 and 62 and phospholipids is stronger than that of the other four IVP molecules. […] In FIGS. 20A and 21, with the increase of RNA concentration, the fluorescence intensity of all the molecules increases. […] In FIG. 20B and FIG. 21, IVP molecules bound to the minor grooves of RNA, and the binding energy (E) was calculated and summarized in FIG. 20C.

A549 and HLF cells = assay: CLSM imaging of A549 and HLF cells seeded on different cover glasses in the same dish; assay type: cell-based, human; conditions: 2 μM, 30 min
Procedure: as §4, §5, §6, §7

[3] = Quantum yield in the solid state; assay type: physicochemical
Description: IVPI-2 is able to stain mitochondria in healthy live cancer cells. However, when Δψm decreases, IVPI-2 migrates into nucleolus. Since IVPI-2 is target-changeable according to the change of mitochondrial physiology, the chemical structure of IVPI-2 was modified in order to enhance the mitochondria to nucleolus migration. Iodide ion is a well-known effective fluorescent quencher due to its heavy-atom effect. The quantum yield of IVP-02 in the solid state is 4.3%, which is about 3 times than that of IVPI-02 (1.3%). An Exemplary synthetic route to certain embodiments of the compounds described herein is depicted in Scheme 1.

For `CCn1cc(/C=C/c2cc[n+](CC)cc2)c2ccccc21` [IVP-22], the “nucleolus staining after addition of CCCP” value (from here on “nucleolus staining”) (HeLa cells) was “could stain nucleolus”, the “mitochondrial staining in cancer cells” value [1] was “can selectively stain mitochondria in cancer cells” and the “migration back to mitochondria after removal of CCCP” value (“migration back to mitochondria” for short) (A549 cells) was “could migrate back in mitochondria”. For the same compound, the “migration from mitochondria to nucleolus after addition of CCCP” value (shortened to “migration from mitochondria to nucleolus”) (A549 cells) was “could enter nucleus and stain nucleolus” and the “staining of co-cultured cancer and normal cells” value [2] was “only stain A549 cells”.

For `CCCCCCn1cc(/C=C/c2cc[n+](CC)cc2)c2ccccc21` [IVP-62], the “nucleolus staining” value (HeLa cells) was “cannot”, the “binding constant (k) to RNA” value (RNA) was “lower than that of IVP-02, 04, 22, and 42” and the “mitochondrial staining in cancer cells” value [1] was “can selectively stain mitochondria in cancer cells”. For the same compound, the “migration from mitochondria to nucleolus” value (A549 cells) was “did not enter the nuclear to a substantial degree” and the “staining of co-cultured cancer and normal cells” value [2] was “only stain A549 cells”.

With `CCCCn1cc(/C=C/c2cc[n+](CC)cc2)c2ccccc21` [IVP-42] the “nucleolus staining” value (HeLa cells) was “could stain nucleolus”, the “mitochondrial staining in cancer cells” value [1] was “can selectively stain mitochondria in cancer cells” and the “migration back to mitochondria” value (A549 cells) was “could migrate back in mitochondria”. For the same compound, the “migration from mitochondria to nucleolus” value (A549 cells) was “could enter nucleus and stain nucleolus” and the “staining of co-cultured cancer and normal cells” value [2] was “only stain A549 cells”.

For `CCCCCC[n+]1ccc(/C=C/c2c[nH]c3ccccc23)cc1` [IVP-06], the “staining of A549 and HLF cells on different cover glasses” value (A549 and HLF cells) was “could stain both A549 and HLF cells”, the “nucleolus staining” value (HeLa cells) was “cannot” and the “binding constant (k) to RNA” value (RNA) was “lower than that of IVP-02, 04, 22, and 42”. The “mitochondrial staining in cancer cells” value [1] was “can selectively stain mitochondria in cancer cells”, the “migration from mitochondria to nucleolus” value (A549 cells) was “did not enter the nuclear to a substantial degree” and the “staining of co-cultured cancer and normal cells” value [2] was “can stain both A549 and COS7 cells”.

With `CCCC[n+]1ccc(/C=C/c2c[nH]c3ccccc23)cc1` [IVP-04] the “staining of A549 and HLF cells on different cover glasses” value (A549 and HLF cells) was “could stain both A549 and HLF cells”, the “nucleolus staining” value (HeLa cells) was “could stain nucleolus” and the “mitochondrial staining in cancer cells” value [1] was “can selectively stain mitochondria in cancer cells”. The “migration back to mitochondria” value (A549 cells) was “could migrate back in mitochondria”, the “migration from mitochondria to nucleolus” value (A549 cells) was “could enter nucleus and stain nucleolus” and the “staining of co-cultured cancer and normal cells” value [2] was “can stain both A549 and COS7 cells”.

For `CC[n+]1ccc(/C=C/c2c[nH]c3ccccc23)cc1.[I-]` [IVPI-02, reference compound], the quantum yield [3] was 1.3%.
